Patent US7098219B2, “Inhibitors of cellular efflux pumps of microbes” (Wockhart Limited, priority 2000, dated 2006)

Each compound was assayed on Mef Efflux Pump of Streptococcus pneumoniae 3514 and Streptococcus pyogenes 26-00 (assay: Two plate diffusion assay for macrolide (Mef) efflux pump inhibitors, azithromycin plate versus control plate). Settings: zone of inhibition in antibiotic plate (method: azithromycin 0.5 mcg/ml; footnote: levofloxacin) minus water control plate; strain not given.
Type: cell-based

In order of falling “Difference in Zone diameter Z1 (mm)” value:
1. CCNC1CCN(c2c(F)cc3c(=O)c(C(=O)O)cn(CC)c3c2F)CC1 [Example 12 (Mef), 1-Ethyl-6,8-difluoro-1,4-dihydro-7-(4′-ethylaminouiperidin-1′-yl)-4-oxo-quinoline-3-carboxylic acid]  18 mm
2. CC1COc2c(N3CCC(O)C(CN)C3)c(F)cc3c(=O)c(C(=O)O)cn1c23 (centres unmarked) [Example 27 (Mef), 7H-Pyrido[1,2,3-de]-1,4-benzoxazine-9-fluoro-2,3-dihydro-3-methyl-10-(3′-aminomethyl-4′-hydroxypiperidin-1′-yl)-7-oxo-6-carboxylic acid]  16 mm
3. O=C(O)c1cn(-c2ccc(F)cc2F)c2nc(N3C[C@@H]4[C@H](C3)[C@H]4NCc3ccccc3)c(F)cc2c1=O [Example 23 (Mef), 1-(2,4-Difluorophenl)-6-fluoro-1,4-dihydro-7-{(1∝,5∝,6∝)-6-amino-N-benzyl-3-azabicyclo[3.1.0]hex-6-yl}-4-oxo-1,8-naphthyridine-3-carboxylic acid]  15 mm
4. Nc1c(F)c(C2(N)C3CN(Cc4ccccc4)CC32)c(F)c2c1c(=O)c(C(=O)O)cn2C1CC1 (centres unmarked) [Example 15 (Mef), 5-Amino-1-cyclopropyl-6,8-difluoro-1,4-dihydro-7-{(1∝,5∝,6∝)-6-amino-N-benzyl-3-azabicyclo[3.1.0]hex-6-yl}-4-oxo-quinoline-3-carboxylic acid]  14 mm
5. CCOC(=O)COC(=O)c1cn(C2CC2)c2c(OC)c(N3CCC(N)C(C)(C)C3)c(F)cc2c1=O (centres unmarked) [Example 5 (Mef), Ethoxycarbony methyl 1-Cyclopropyl-6-fluoro-8-methoxy-1,4-dihydro-7-(4′-amino-3′,3′-dimethylpiperidin-1-yl)-4-oxo-quinoline-3-carboxylate]  13 mm
6. C[C@H]1CCOc2c(N3CCC(N)CC3)c(F)cc3c(=O)c(C(=O)O)cn1c23.Cl [Example 40 (Mef), 10-Fluoro-11-(4-aminopiperidin-1-yl)-3,4-dihydro-4(S)-methyl-8-oxo-2H,8H-pyrido[1,2,3-ef]-1,5-benzoxazepin-7-carboxylic acid, hydrochloride]  13 mm
7. COc1c(N2CCC(NC(=O)OC(C)(C)C)C(C)(C)C2)c(F)cc2c(=O)c(C(=O)OCc3ccccc3)cn(C3CC3)c12 (centres unmarked) [Example 6 (Mef)]  13 mm
8. CCNC1C(C)CN(c2c(F)c(N)c3c(=O)c(C(=O)O)cn(C4CC4)c3c2OC)CC1C (centres unmarked) [Example 35 (Mef), 5-Amino-1-cyclopropyl-6-fluoro-8-methoxy-1,4-dihydro-7-{4′-ethylamino-3′,5′-dimethylpiperidin-1-yl}-4-oxo-quinoline-3-carboxylic acid]  13 mm
9. COc1c(N2CCC(N)C(C)(C)C2)c(F)cc2c(=O)c(C(=O)OC(C)C)cn(C3CC3)c12 (centres unmarked) [Example 3 (Mef), i-Propyl 1-cyclopropyl-6-fluoro-8-methoxy-1,4-dihydro-7-(4′-amino-3′,3′-dimethyl-piperidin-1-yl)-4-oxo-quinoline-3-carboxylate]  11 mm
10. CCCCOC(=O)c1cn(C2CC2)c2c(OC)c(N3CCC(N)C(C)(C)C3)c(F)cc2c1=O (centres unmarked) [Example 4 (Mef), n-Butyl 1-cyclopropyl-6-fluoro-8-methoxy-1,4-dihydro-7-(4′-amino-3′,3′-dimethyl-piperidin-1-yl)-4-oxo-quinoline-3-carboxylate]  11 mm
11. CC1CCc2c(N3CC[C@@H](O)[C@H](C)C3)ccc3c(=O)c(C(=O)O)cn1c23 (mixture of isomers) [Example 41 (Mef), (RS)-(±)-6,7-dihydro-8-(trans-4′-hydroxy-3′-methylpiperidin-1-yl)-5-methyl-1-oxo-1H,5H-benzo[i,j]quinolizine-2-carboxylic acid]  10 mm
12. Cc1c(F)c(F)c(F)c2c1c(=O)c(C(=O)O)cn2C1CC1 [Example 29 (Mef), 1-cyclopropyl-6,7,8-trifluoro-5-methyl-1,4-dihydro-4-oxo-quinoline-3-carboxylic acid]  10 mm
13. COc1c(N2CCC(NC3CC3)CC2)c(F)c(N)c2c(=O)c(C(=O)O)cn(C3CC3)c12 [Example 33 (Mef), 5-Amino-1-cyclopropyl-6-fluoro-8-methoxy-1,4-dihydro-7-(4′-cyclopropylaminopiperidin-1-yl)-4-oxo-quinoline-3-carboxylic acid]  10 mm
14. CC1CCc2c(N3CCC(O)C(C)(C)C3)ccc3c(=O)c(C(=O)O)cn1c23 (racemic) [Example 43 (Mef), (RS)-(±)-6,7-dihydro-8-(4′-hydroxy-3′,3′-dimethylpiperidin-1-yl)-5-methyl-1-oxo-1H,5H-benzo[i,j]quinolizine-2-carboxylic acid]  10 mm
15. CCNC1CCN(c2c(F)c(C)c3c(=O)c(C(=O)O)cn(C4CC4)c3c2F)CC1(C)C (centres unmarked) [Example 28 (Mef), 1-Cyclopropyl-6,8-difluoro-5-methyl-1,4-dihydro-7-(3′,3′-dimethyl-4′-ethylaminopiperidin-1-yl)-4-oxo-quinoline-3-carboxylic acid]  10 mm
16. CCOC(=O)c1cn(-c2ccc(F)cc2F)c2nc(N3CCC(N)C(CC)C3)c(F)cc2c1=O (centres unmarked) [Example 36 (Mef), Ethyl 1-(2,4-difluorophenyl)-6-fluoro-1,4-dihydro-7-(4-amino-3-ethylpiperidin-1-yl)-4-oxo-1,8-naphthyridine-3-carboxylate]  10 mm
17. CC1(C)CN(c2nc3c(cc2F)c(=O)c(C(=O)O)cn3-c2ccc(F)cc2F)CCC1O (centres unmarked) [Example 24 (Mef), 1-(2,4-Difluorophenyl)-6-fluoro-1,4-dihydro-7-(3′,3′-dimethyl-4′-hydroxypiperdin-1-yl)-4-oxo-naphthyridine-3-carboxylic acid]  10 mm
18. COc1c(N2CCC(NC(=O)[C@H](C)N)C(C)(C)C2)c(F)cc2c(=O)c(C(=O)O)cn(C3CC3)c12.Cl (some centres unmarked) [Example 8 (Mef), 1-Cyclopropyl-6-fluoro-8-methoxy-1,4-dihydro-7-(4′-(L)-alaninylamino-3′,3′-dimethylpiperidin-1-yl)-4-oxo-quinoline-3-carboxylic acid hydrochloride]  10 mm
19. CN1CCN(c2cc3c(cc2F)c(=O)c(C(=O)O)cn3-c2cccc(F)c2)CC1 [Example 16 (Mef), 1-(3′-Fluorophenyl)-6-fluoro-1,4-dihydro-7-(4′-methylpiperazin-1′-yl)-4-oxo-quinoline-3-carboxylic acid]  10 mm
20. CCNC1CCN(c2cc3c(cc2F)c(=O)c(C(=O)O)cn3-c2ccc(F)cc2F)CC1 [Example 17 (Mef), 1-(2′,4′-Difluorophenyl)-6-fluoro-1,4-dihydro-7-(4′-ethylaminopiperidin-1′-yl)-4-oxo-quinoline-3-carboxylic acid]  9 mm
21. Nc1c(F)c(NC2CN3CCC2CC3)c(F)c2c1c(=O)c(C(=O)O)cn2C1CC1 (centres unmarked) [Example 14 (Mef), 5-Amino-1-cyclopropyl-6,8-difluoro-1,4-dihydro-7-(3′-quinuclidinyl-3′-yl-amino)-4-oxo-quinoline-3-carboxylic acid]  8 mm
22. COc1c(N2CCC(NC(=O)[C@@H](N)C(C)C)C(C)(C)C2)c(F)cc2c(=O)c(C(=O)O)cn(C3CC3)c12.Cl (stereo partly drawn) [Example 10 (Mef), 1-Cyclopropyl-6-fluoro-8-methoxy-1,4-dihydro-7-(3′,3′-dimethyl-4′-L-valinylaminopiperidin-1-yl}-4-oxo-quinoline-3-carboxylic acid hydrochloride]  8 mm
23. CCNC1CCN(c2c(F)cc3c(=O)c(C(=O)O)cn4c3c2CC[C@@H]4C)CC1(C)C (stereo partly drawn) [Example 30 (Mef), (S)-(−)-9-Fluoro-6,7-dihydro-8-(3′,3′-dimethyl-4′-ethylaminopiperidin-1-yl)-5-methyl-1-oxo-1H,5H-benzo[i,j]quinolizine-2-carboxylic acid]  8 mm
24. (RS)-(±)-6,7-dihydro-8-(cis-4′-hydroxy-3′-methylpiperidin-1-yl)-5-methyl-1-oxo-1H,5H-benzo[i,j]quinolizine-2-carboxylic acid [Example 42 (Mef)]  8 mm
25. CC1CN(c2cc3c(cc2F)c(=O)c(C(=O)O)cn3C2CC2)CCC1N(C)C (centres unmarked) [Example 32 (Mef), 1-Cyclopropyl-6-fluoro-1,4-dihydro-7-(4′-dimethylamino-3′-methylpiperidin-1-yl)-4-oxo-quinoline-3-carboxylic acid]  8 mm
26. Cc1c(F)c(N2CCC(N)CC2)cc2c1c(=O)c(C(=O)O)cn2-c1ccc(F)cc1F [Example 18 (Mef), 1-(2′,4′-Difluorophenyl)-6-fluoro-5-methyl-1,4-dihydro-7-(4′-aminopiperidin-1′-yl)-4-oxo-quinoline-3-carboxylic acid]  8 mm
27. COc1c(N2CCC(NC(=O)[C@H](C)NC(=O)OC(C)(C)C)C(C)(C)C2)c(F)cc2c(=O)c(C(=O)O)cn(C3CC3)c12.Cl (stereo partly drawn) [Example 7 (Mef), 1-Cyclopropyl-6-fluoro-8-methoxy-1,4-dihydro-7-{4′-N-(t-butoxycarbonyl-L-alanyl)-amino-3′,3′-dimethylpiperidin-1-yl}-4-oxo-quinoline-3-carboxylic acid hydrochloride]  7 mm
28. COc1c(N2CCC(NC(=O)[C@@H](N)CC(=O)O)C(C)(C)C2)c(F)cc2c(=O)c(C(=O)O)cn(C3CC3)c12.Cl (some centres unmarked) [Example 11 (Mef), 1-Cyclopropyl-6-fluoro-8-methoxy-1,4-dihydro-7-(4′-(L)-aspartylamino-3′,3′-dimethylpiperidin-1-yl}-4-oxo-quinoline-3-carboxylic acid hydrochloride]  6 mm
29. COc1c(N2CCC(NC(=O)[C@@H](NC(=O)OC(C)(C)C)C(C)C)C(C)(C)C2)c(F)cc2c(=O)c(C(=O)O)cn(C3CC3)c12 (stereo partly drawn) [Example 9 (Mef), 1-Cyclopropyl-6-fluoro-8-methoxy-1,4-dihydro-7-(3′,3′-dimethyl-4′-N-(t-butoxycarbonyl-L-valyl)-aminopiperidin-1-yl}-4-oxo-quinoline-3-carboxylic acid]  5 mm
